Measurements taken from patent US5641480A, “Hair care compositions comprising heteroatom containing alkyl aldonamide compounds” (Lever Brothers Company, Division of Conopco, Inc., priority 1994, dated 1997).
Where two headings read alike, the source gives them in different places.

Legend:
[1] = Clarity of prototype shampoo compositions with sodium lauryl sulfate (Example 87); type: physicochemical; conditions: room temperature, 6 months
Method: The prototype shampoo composition is as follows:
The above formulations were prepared by admixing the above ingredients in listed order and heating the mixture to about 80° C. with rapid stirring. The mixture was then cooled to about 40° C., placed in a clear jar and stored at room temperature for 6 months.

[2] = Critical micelle concentration, Wilhelmy plate method (Example 90); type: physicochemical
Method: The critical micelle concentration (CMC) is defined as the concentration at which a surfactant forms micelles in aqueous solution. Micellization is the preferred interfacial phenomena, since certain surfactant benefits such as detergency (the solubilization of soils), foaming, wetting or emulsification depend on the formation of these aggregates in solution.
The CMC value of C8 /C10 oxypropyl D-gluconamide was determined by plotting surface tension as a function of log(concentration) and extrapolating linear points to obtain an intersection point. The concentration at this point was taken as the CMC. The technique used was the Wilhelmy plate method and the instrument used was a Lauda Auto-Tensiometer. While wishing not to be bound to theory, it is believed that surfactants with low CMC values form micelles more readily at lower concentrations than those with high CMC values.

[3] = Efficiency in surface tension reduction, pC20 (Example 92); type: physicochemical; conditions: 60 °C, estimated by extrapolation
From the text: Since surface tension reduction depends on the replacement of water molecules at the interface by surfactant molecules, the efficiency of a surfactant in reducing interfacial tension should reflect the concentration of surfactant at the interface relative to that in bulk liquid phase. A suitable measure of efficiency with which a surfactant performs this function can be described as pC20. This is defined as the negative logarithm of the bulk phase surfactant concentration necessary to reduce the surface tension of water by 20 dyn/cm and is given as:
pC20 =-log [C(-Δγ=20) ]=-log [C20]
C(-Δγ=20) =C20 is the bulk phase surfactant concentration necessary to reduce the surface tension of water by 20 dyn/cm.
In general, pC20 values are usually close to the minimum concentration needed to saturate the interface with surfactant molecules.

[4] = Rosen, cited from earlier work
[5] = Area per molecule at the water/air interface (Example 95); type: physicochemical; conditions: 60 °C, estimated by extrapolation
From the text: The area per molecule of a surfactant at the water/air interface provides information on the degree of packing and the orientation of the adsorbed surfactant molecule. While not wishing to be bound by theory, it is believed that surfactants that have small area per molecule values tend to pack more closely at the interface than those with large area per molecule values. From the surface excess concentration at surface saturation (Γmax), the area per molecule (am) of C8 /C10 oxypropyl D-gluconamide was determined and is given by:
am =1×10^16 /Nav Γmax

[6] = Rosen, cited from earlier work; remark: listed apart in the source
[7] = Effectiveness in reducing surface tension (Example 93); type: physicochemical; conditions: 60 °C, estimated by extrapolation
From the text: As mentioned before, surface tension reduction depends on the replacement of water molecules at the interface by surfactant molecules, therefore the effectiveness of a surfactant in reducing interfacial surface tension should reflect the saturated concentration of surfactant at the interface relative to that in bulk liquid phase. During this process the surface tension of water steadily decreases as bulk phase surfactant concentration increases. This will continue until the concentration reaches the critical micelle concentration (CMC), above which the surface tension remains nearly unchanged and the interface is saturated with surfactant. The surface tension at the CMC is therefore very close to the minimum interfacial tension or maximum surface pressure that the system can achieve. The surface pressure at this point, IIcmc, is a suitable measure of the effectiveness of a surfactant in reducing surface tension and is given as:
.PI.cmc 20+2.3nRT(Γmax) log [CMC/C20 ]
n=1 which represents the number of ions whose surface concentration changes with the change in liquid phase suffactant concentration.
CMC/C20 =is the ratio of the critical micelle concentration to the bulk phase surfactant concentration necessary to reduce the surface tension of water by 20 dyn/cm.

[8] = Rosen, cited from earlier work; remark: listed apart in the source
[9] = Effectiveness of adsorption, surface excess concentration at surface saturation (Example 94); type: physicochemical; conditions: 60 °C, estimated by extrapolation
From the text: The surface excess concentration at surface saturation (Γmax) is defined as a measure of the effectiveness of surfactant adsorption at the water/air interface and represents the maximum value to which adsorption can be obtained. Effectiveness of adsorption is related to the interfacial area occupied by the surfactant molecule. The smaller the effective cross-sectional area of a surfactant at the interface, the greater its effectiveness of adsorption. The effectiveness of adsorption is an important factor in determining surfactant properties such as detergency, foaming, wetting or emulsification. While not wishing to be bound by theory, it is believed that surfactants that absorb effectively at the interface tend have tightly packed coherent interfacial films and often provide better surfactant benefits than those with loosely packed noncoherent films. The effectiveness of adsorption of C8 /C10 oxypropyl D-gluconamide was determined using the Gibbs equation given as: […]
ergs/cm^2 (which is equivalent to the slope of a plot of γ

[10] = Rosen, cited from earlier work; remark: listed apart in the source
[11] = Foam stability and enhancement of prototype shampoo (sodium/ammonium lauryl sulfate), Ross-Miles Foam Height assay (Example 86); type: physicochemical; conditions: 45° C., 4.0% additive in prototype shampoo
Method: The results were compared to identical compositions comprising petrochemitcally derived foam stabilizing agents, in particular, alkanolamides and alcohol ethoxylates. The prototype shampoo composition is as follows:
The compositions were prepared by admixing the ingredients in listed order with rapid stirring at 45°-50° C. Foam stability and enhancement were measured at 0.1% based on sodium and ammonium lauryl sulfate (0.16% total solids) at 45° C. and 0 or 120 parts per million (ppm) hardness calcium:magnesium ion 2:1.

[12] = Viscosity of prototype shampoo compositions of Example 86, Brookfield Digital Viscometer; type: physicochemical; conditions: 4.0% thickener, Example 86 shampoo, 22° C.
From the text: The results are as follows:

[13] = Surface tension at the water/air interface (Example 91); type: physicochemical; conditions: 60 °C
Method: An important characteristic feature that surfactants have is the tendency for them to absorb at the water/air interface in an oriented manner, thereby altering the interfacial free energy of that surface. The surface free energy per unit area or surface tension (γ), is a measure of this work and may be considered as the minimum amount of work required to bring sufficient surfactant molecules to the surface.
The surface tension (γ) value of C8 /C10 oxypropyl D-gluconamide was determined and is set forth below: […]

[14] = Foam stability and enhancement of sodium dodecyl benzene sulfonate, Ross-Miles method (Example 85); type: physicochemical; conditions: 30 minutes, 10:90 mole %, 35° C., pH 10
Method: The triolein/calcium stearate mixture was dispersed to the above solutions using a high speed shear mixer at 60° C. and then cooled to 35° C. The triolein/calcium stearate mixture represents an extreme type of antifoam behavior found in sebum soil.
The foaming behavior of the above surfactants was determined by the Ross-Miles Foam Height Assay (Ross, J. and Miles, G. D. Am Soc. for Testing Material Method Dl173-63 Philadelphia, Pa. (1953); Oil & Soap (1958) 62:1260) and the cylinder shaking method.
In the Ross-Miles method, 200 mL of a surfactant solution contained in a pipette of specified dimensions with a 2.9-mm-i.d. orifice is allowed to fall 90 cm onto 50 mL of the same solution contained in a cylindrical vessel maintained at a given temperature by means of a water jacket. The height of the foam produced in the cylindrical vessel is read after 30 minutes has elapsed.
The foam stability and enhancement of the heteroatom containing alkyl aldonamides was further determined using a 10:90 mole percent solution of C8 /C10 oxypropyl D-gluconamide (C8 /C10 OPG): sodium dodecyl benzene sulfonate (C12 LAS) and compared to identical solutions of dodecyl D-gluconamide (C12 Gluc): sodium dodecyl benzene sulfonate in the presence and absence of the triolein/calcium stearate antifoam.

Compound | am (area per molecule) [5] [Å^2] | .PI.cmc (surface pressure) [7] [dyn/cm] | Γmax (surface excess concentration at surface saturation) [9] | pC20 ([4]; 25 °C) | .PI.cmc (surface pressure) ([6]; 25 °C) [dyn/cm] | CMC/C20 ([6]; 25 °C) | .PI.cmc (surface pressure) ([6]; 40 °C) [dyn/cm] | CMC/C20 ([6]; 40 °C) | am (area per molecule) ([8]; 25 °C) [Å^2] | am (area per molecule) ([8]; 40 °C) [Å^2] | Γmax (surface excess concentration at surface saturation) ([10]; 25 °C) | Γmax (surface excess concentration at surface saturation) ([10]; 40 °C) | further results
CCCCCCCCCCCCNC(=O)[C@H](O)[C@@H](O)[C@H](O)[C@H](O)CO [C12 D-Gluconamide, dodecyl D-gluconamide] |  |  |  |  |  |  |  |  |  |  |  |  | Appearance (Time) ([1]; 3.0% thickener in […] sodium lauryl sulfate shampoo): Precipitate (2 days); Appearance (Time) ([1]; 5.0% thickener in […] sodium lauryl sulfate shampoo): Precipitate (1 hour); CMC ([2]; 60 °C): None; water solubility ([2]; 60 °C table entry / discussion): insoluble in water and can not form micelles
CCCCCCCCCCCCOCCOCCOCCOCCOCCOCCOCCO [Dodecylhepta(oxyethylene) Ether] | 61.0 | 36.8 | 2.71 × 10^-10 mole/cm^2 | 5.26 | 38.3 | 14.9 | 38.5 | 13.9 | 57.3 | 59.9 | 2.90 × 10^-10 mole/cm^2 | 2.77 × 10^-10 mole/cm^2 | pC20 [3]: 5.41; pC20 ([4]; 40 °C): 5.28
CCCCCCCCCCCC(=O)N(CCO)CCO [Lauramide DEA, lauramide diethanolamine] |  |  |  |  |  |  |  |  |  |  |  |  | Final FH after 60 Min. ([11]; 0 ppm hardness): 151 mm; Initial FH ([11]; 0 ppm hardness): 190 mm; Final FH after 60 Min. ([11]; 120 ppm hardness): 126 mm; Initial FH ([11]; 120 ppm hardness): 159 mm; Viscosity [12]: 2376 Centipoise
O [Water] |  |  |  |  |  |  |  |  |  |  |  |  | γ (surface tension) [13]: 60.2 dyn/cm
cocoamide monoethanolamine [Cocoamide MEA] |  |  |  |  |  |  |  |  |  |  |  |  | Final FH after 60 Min. ([11]; 0 ppm hardness): 70 mm; Initial FH ([11]; 0 ppm hardness): 178 mm; Final FH after 60 Min. ([11]; 120 ppm hardness): 53 mm; Initial FH ([11]; 120 ppm hardness): 148 mm; Viscosity [12]: 1720 Centipoise
sodium dodecyl benzene sulfonate [C12 LAS] |  |  |  |  |  |  |  |  |  |  |  |  | Foam Height, No Antifoam [14]: 131 mm; Foam Height, With Antifoam ([14]; triolein/calcium stearate 1 g/L): 61 mm

More lines, main results first:

am (area per molecule) [5] [Å^2] | .PI.cmc (surface pressure) [7] [dyn/cm] | Γmax (surface excess concentration at surface saturation) [9] | Compound | pC20 ([4]; 25 °C) | .PI.cmc (surface pressure) ([6]; 25 °C) [dyn/cm] | CMC/C20 ([6]; 25 °C) | .PI.cmc (surface pressure) ([6]; 40 °C) [dyn/cm] | CMC/C20 ([6]; 40 °C) | am (area per molecule) ([8]; 25 °C) [Å^2] | am (area per molecule) ([8]; 40 °C) [Å^2] | Γmax (surface excess concentration at surface saturation) ([10]; 25 °C) | Γmax (surface excess concentration at surface saturation) ([10]; 40 °C) | further results
69.0 | 36.3 | 2.40 × 10^-10 mole/cm^2 | CCCCCCCCCCCCOCCOCCOCCOCCOCCOCCOCCOCCO [Dodecylocta(oxyethylene) Ether] | 5.20 | 37.2 | 17.3 | 37.3 | 15.4 | 66.0 | 67.4 | 2.52 × 10^-10 mole/cm^2 | 2.46 × 10^-10 mole/cm^2 | pC20 [3]: 5.39; pC20 ([4]; 40 °C): 5.22
52.3 | 40.7 | 3.16 × 10^-10 mole/cm^2 | CCCCCCCCCCCCOCCOCCOCCOCCOCCO [Dodecylpenta(oxyethylene) Ether] | 5.37 | 41.5 | 15.0 | 41.2 |  | 50.1 | 50.6 | 3.31 × 10^-10 mole/cm^2 | 3.28 × 10^-10 mole/cm^2 | 
53.3 | 40.7 | 3.01 × 10^-10 mole/cm^2 | CCCCCCCCCCCCOCCOCCOCCOCCO [Dodecyltetra(oxyethylene) Ether] | 5.34 | 43.4 | 13.7 | 42.0 | 11.8 | 45.7 | 48.7 | 3.63 × 10^-10 mole/cm^2 | 3.41 × 10^-10 mole/cm^2 | 
45.4 | 41.4 | 3.83 × 10^-10 mole/cm^2 | CCCCCCCCCCCCOCCOCCOCCO [Dodecyltri(oxyethylene) Ether] | 5.34 | 44.1 | 11.4 | 43.1 |  | 41.7 | 42.5 | 3.98 × 10^-10 mole/cm^2 | 3.90 × 10^-10 mole/cm^2 | 
